Assay: Particle size distribution by laser diffraction (Malvern Mastersizer 3000)
Type: physicochemical
Details: aqueous suspension, after ultrasonification
Procedure: For the purpose of this invention, particle size distribution (PSD) is determined as the percent volume at each particle size and measured by a laser diffraction method in the context of a circulating aqueous suspension.
A Malvern Mastersizer 3000 laser diffraction analyzer equipped with a Hydro EV measurement cell was used. About 50 mg of sample were filled into a 15 ml glass test tube. The sample was wetted with two drops of Tween 80 and vortexed. Then the thoroughly wetted sample was dispersed in about 7 mL of UHQ-water by vortexing until the particles were dispersed. The suspension was treated for 7 minutes in an ultrasonification bath at RT (Elma S50H). The well dispersed suspension was then measured in water by adding a sample from the center of the test tube containing the well dispersed suspension to a water-filled dispersion unit prefilled with 70 mL of water. The sample in the 70 mL dispersion unit was kept under stirring at 2000 rpm. More sample from the test tube was added, until a targeted obscuration range of 10-25 percent was achieved. The Malvern Mastersizer was operated using the following parameters:
Particle size distribution was measured with a Malvern Mastersizer 3000 laser diffraction analyzer equipped with a Hydro EV measurement cell. About 50 mg of sample were given into a test tube. The sample was wetted with two drops of Tween 80 and dispersed in about 7 ml of water on a Vortexer. The suspension was treated for 7 minutes in a ultrasonification bath (Elma S50H). The well dispersed suspension was afterwards measured in water at a targeted obscuration range of 10-25 percent while circulating the aqueous suspension and stirring the suspension reservoir at 2000 rpm after a waiting period of three minutes. A fraunhofer optical model was utilized to deconvolute the sample scattering patterns to yield the resultant particle size distributions. Analysis model: General purpose/normal sensitivity. Measuring/background time: about 10 sec

d(4,3) volume mean diameter	d(10) (volume distribution)	d(90) (volume distribution)	Structure (SMILES)	d(50) (volume distribution)
D(4.3): 19 μm	D(10): 1.5 μm	D(90): 42 μm	O=c1ccc2ccc(OCCCCN3CCN(c4cccc5sccc45)CC3)cc2[nH]1 [(i)]	–
D(4.3): 30 μm	D(10): 1.3 μm	D(90); 79 μm	O=c1ccc2ccc(OCCCCN3CCN(c4cccc5sccc45)CC3)cc2[nH]1 [(ii)]	–

Structure (SMILES)	d(4,3) volume mean diameter	d(10) (volume distribution)	d(90) (volume distribution)	d(50) (volume distribution)
O=c1ccc2ccc(OCCCCN3CCN(c4cccc5sccc45)CC3)cc2[nH]1 [Compound I, 7-[4-[4-(1-Benzothiophen-4-yl)piperazin-1-yl]butoxy]quinolin-2(1H)-one, reference compound]	–	0.8 μm	10.8 μm	3 μm

Source: US11072605B2, “Crystalline brexpiprazole” (Hexal Aktiengesellschaft, priority 2017, dated 2021)
